Test results as given in patent US8748428B2, “Use of a PKC inhibitor” (Novartis AG, priority 2010, dated 2014).
Blank lines part the entries; values can stand above or below the molecule they belong to.

How the values were obtained:
Format in all cases: cell-based
DB cells = assay: Growth inhibition, CellTiter-Glo, 5 days; conditions: Homo sapiens, 120 h, GC DLBCL, no NFkB mutation, 5 days treatment, read-out: growth inhibitory IC50, DB
Description: (§1) Two pharmacological PKC inhibitors: (i) the pan-PKC inhibitor, Sotrastaurin, also known as AEB071, and (ii) the PKCa/b-selective compound, 3-[2-chloro-7-[(dimethylamino)methyl]-1-naphthalenyl]-4-[7-[2-(2-methoxyethoxy)ethoxy]-1H-indol-3-yl]-1H-pyrrole-2,5-dione (referred to herein as “Compound B”), were used to evaluate the proliferation of several diffuse large B cell lymphoma (DLBCL) lines. The IKKb-selective inhibitors N-(6-chloro-7-methoxy-9H-β-carbolin-8-yl)-2-methylnicotinamide (referred to herein as “MLN120B”) and N-[(2R,6R)-2,6-dimethyl-4-piperidinyl]-4-(7-fluoro-1H-indol-3-yl)-2-pyrimidinamine (referred to herein as “Compound A”) were used as control compounds. ABC DLBCL cell lines (OCI-LY3, OCI-LY10, HBL1, U2932, TMD8, Su-DHL2) and GC DLBCL cell lines (Su-DHL4, DB, K-422) were treated for 5 days with PKC inhibitors (A) Sotrastaurin (AEB071) or (B) Compound B; IKKb inhibitors (C) MLN120B or (D) Compound A. Cells were plated in 96-well plates (Corning, #3358) at 5000 cells/well in 100 μL and treated with DMSO or inhibitors at concentrations ranging from 160 nM to 20 μM (2-fold dilutions). Following 5 days of treatment, cells were lysed with CellTiter-Glo® Luminescent Cell Viability Assay reagent (Promega, G7573), lysates were transferred to opaque 96-well plates (Corning, #3971), and luminescence signal was read using the Envision. Percent growth was calculated relative to median DMSO signal.
(§2) While all ABC DLBCL cell lines were sensitive to IKK inhibitors, their response to PKC inhibitors varied strongly (Table 1A below). The cell lines that are insensitive to PKC inhibitors, OCI-Ly3 and Su-DHL2, have reported mutations in CARD11 and A20, respectively. […] The fact that these oncogenic lesions are thought to function downstream of PKCβ in CBM-NFkB signaling provides a molecular rationale for their insensitivity. […] See, Compagno, M., et al, “Mutations of multiple genes cause deregulation of NF-κB in diffuse large B-cell lymphoma” Nature, 459 (7247), 717-722 (2009)). […] Tables 1A and 1B below show the growth inhibitory IC50 values, which were determined by measuring ATP concentration (Cell Titer Glo), for the indicated compounds in the indicated cell lines. IC50 values were determined as the concentration of compound that leads to 50% reduction of cell growth.

HBL1 cells = assay: Growth inhibition, CellTiter-Glo, 5 days; conditions: HBL1, 120 h; ABC DLBCL, CD79B mutation; 5 days treatment; read-out: growth inhibitory IC50, HBL1
Description: as §1, §2

K422 cells = assay: Growth inhibition, CellTiter-Glo, 5 days; conditions: 120 h; GC DLBCL, no NFkB mutation; 5 days treatment; read-out: growth inhibitory IC50, K422
Description: as §1, §2

OCI-Ly10 cells = assay: Growth inhibition, CellTiter-Glo, 5 days; conditions: Homo sapiens, OCI-Ly10, 120 h; ABC DLBCL, CD79A mutation; 5 days treatment; read-out: growth inhibitory IC50, OCI-Ly10
Description: as §1, §2

OCI-Ly3 cells = assay: Growth inhibition, CellTiter-Glo, 5 days; conditions: Homo sapiens, OCI-Ly3, 120 h; ABC DLBCL, CARD11 mutation; 5 days treatment; read-out: growth inhibitory IC50, OCI-Ly3
Description: as §1, §2

Su-DHL2 cells = assay: Growth inhibition, CellTiter-Glo, 5 days; conditions: Homo sapiens, SU-DHL-2, 120 h; ABC DLBCL, A20 mutation; 5 days treatment; read-out: growth inhibitory IC50, Su-DHL2
Description: as §1, §2

Su-DHL4 cells = assay: Growth inhibition, CellTiter-Glo, 5 days; conditions: Homo sapiens, SU-DHL-4, 120 h; GC DLBCL, no NFkB mutation; 5 days treatment; read-out: growth inhibitory IC50, Su-DHL4
Description: as §1, §2

TMD8 cells = assay: Growth inhibition, CellTiter-Glo, 5 days; conditions: Homo sapiens, TMD8, 120 h; ABC DLBCL, CD79B mutation; 5 days treatment; read-out: growth inhibitory IC50, TMD8
Description: as §1, §2

U2392 cells = assay: Growth inhibition, CellTiter-Glo, 5 days; conditions: 120 h; ABC DLBCL, TAK1 mutation; 5 days treatment; read-out: growth inhibitory IC50, U2392
Description: as §1, §2

IL-6 mRNA in TMD8 cells = assay: IL-6 mRNA expression (Taqman); conditions: TMD8, 24 hours, 10 nM to 10 uM
Description: Constitutive activation of the NFkB pathway is a molecular hallmark of ABC DLBCL cells and is required for their proliferation and survival. See Davis, R. E., et al., J Exp Med, 194(12), 1861-1874 (2001). To confirm that the growth inhibitory effect in response to PKC inhibition is mediated through modulation of NFkB pathway signaling, the expression of NFkB pathway genes were monitored in response to AEB071 treatment. The NFkB-pathway-induced cytokine IL-6 was used as a marker to study NFkB pathway modulation by PKC inhibitors. See Lam, L. T., et al., Blood 111(7):3701-13 (2008). To measure IL-6 mRNA levels, cells were plated in […] plates in 2 ml media at 2M/ml, then treated with DMSO or inhibitors from 10 nM to 10 uM (4-fold dilutions) for 24 hours. Total RNA was harvested using the RNeasy kit (Qiagen, #74104) and cDNA was made from 1 μg total RNA using the High Capacity cDNA kit (ABI, #4368814), according to manufacturer's protocols. Taqman probes (ABI: IL-6, Hs00174131_m1) were used with Gene Expression Master Mix (ABI, 4369510) to determine the amount of mRNA expression for IL-6 relative to an endogenous control gene (ABI: TBP, 4326322E) and the DMSO control using the delta-delta Ct method.

[1] = system: IL-6 secretion in HBL1 cells; assay: IL-6 secretion (Quantikine ELISA); conditions: HBL1, ELISA of supernatant, 48 hours
Method: (§3) The fact that IL-6 is secreted from cells allowed for monitoring of IL-6 levels in cell supernatants. IL-6 secretion was determined by Quantikine ELISA using supernatant from treated cells. Cells were washed and plated at 100,000 cells/well in 100 ul in fresh media in round-bottom 96-well plates (Corning, #3358). The cells were then treated with DMSO or inhibitors at concentrations ranging from 80 nM to 10 uM (2-fold dilutions), and incubated at 37° C. for 48 hours. Then the conditioned media was transferred to v-bottom 96-well plates (Nunc, #12565436). The level of IL-6 secretion was determined by the Quantkine colorimetric ELISA kit from (R & D Systems, #D6050), according to the manufacturer's instructions. For the IL-6 ELISA, the conditioned media was diluted 1:2 with fresh media (except ion: the HBL1 conditioned media was not diluted, it was used 1:1). In FIG. 2, IL-6 secretion for each dose is expressed as a percentage of IL-6 secretion from cells treated with DMSO.

[2] = system: IL-6 secretion in TMD8 cells; assay: IL-6 secretion (Quantikine ELISA); conditions: Homo sapiens; TMD8, ELISA of supernatant, 48 hours
Method: as §3

IC50 (OCI-Ly10 cells): 0.3 µM | IC50 (OCI-Ly3 cells): 0.4 µM | IC50 (Su-DHL2 cells): 15 µM | IC50 (Su-DHL4 cells): 10 µM
SMILES: C[C@@H]1CC(Nc2nccc(-c3c[nH]c4c(F)cccc34)n2)C[C@@H](C)N1 (stereo partly drawn) [Compound A, N-[(2R,6R)-2,6-dimethyl-4-piperidinyl]-4-(7-fluoro-1H-indol-3-yl)-2-pyrimidinamine]
IC50 (DB cells): > 20 µM | IC50 (HBL1 cells): 2.5 µM | IC50 (K422 cells): 10 µM | IC50 (TMD8 cells): 0.2 µM | IC50 (U2392 cells): 2.5 µM

IC50 (OCI-Ly3 cells): 15 µM | IC50 (Su-DHL2 cells): > 20 µM | IC50 (Su-DHL4 cells): 15 µM
SMILES: O=C1NC(=O)C(c2c[nH]c3ccccc23)=C1c1nc(N2CCNCC2)nc2ccccc12 [Compound D, 3-(1H-Indol-3-yl)-4-[2-(piperazin-1-yl)quinazolin-4-yl]pyrrole-2,5-dione]
IC50 (DB cells): > 20 µM | IC50 (HBL1 cells): 0.2 µM | IC50 (TMD8 cells): 0.2 µM | IC50 (U2392 cells): 3 µM

Second part, the molecule before the results:

SMILES: COCCOCCOc1cccc2c(C3=C(c4c(Cl)ccc5ccc(CN(C)C)cc45)C(=O)NC3=O)c[nH]c12 [Compound B, 3-[2-chloro-7-[(dimethylamino)methyl]-1-naphthalenyl]-4-[7-[2-(2-methoxyethoxy)ethoxy]-1H-indol-3-yl]-1H-Pyrrole-2,5-dione]
IC50 (DB cells): > 20 µM | IC50 (HBL1 cells): 0.5 µM | IC50 (K422 cells): 11 µM | IC50 (OCI-Ly10 cells): 0.5 µM | IC50 (OCI-Ly3 cells): > 20 µM | IC50 (Su-DHL2 cells): 15 µM | IC50 (Su-DHL4 cells): 7.5 µM | IC50 (TMD8 cells): 0.2 µM | IC50 (U2392 cells): 10 µM | IL-6 mRNA expression (IL-6 mRNA in TMD8 cells): reduced IL-6 mRNA expression in a dose-dependent manner | IC50 [1]: < 0.2 µM | IC50 [2]: < 0.2 µM

SMILES: CN(C)C[C@@H]1CCn2cc(c3ccccc32)C2=C(C(=O)NC2=O)c2cn(c3ccccc23)CCO1 [LY333531, (9S)-9-[(dimethylamino)methyl]-6,7,10,11-tetrahydro-9H,18H-5, 21:12,17-dimethenodibenzo[e,k]pyrrolo[3,4-h][1,4,13]oxadiazacyclohexadecine-18,20(19H)-dione]
IL-6 mRNA expression (IL-6 mRNA in TMD8 cells): reduced IL-6 mRNA expression in a dose-dependent manner

SMILES: COc1c(Cl)cc2c([nH]c3cnccc32)c1NC(=O)c1cccnc1C [MLN120B, N-(6-chloro-7-methoxy-9H-β-carbolin-8-yl)-2-methylnicotinamide]
IC50 (DB cells): > 40 µM | IC50 (HBL1 cells): 10 µM | IC50 (K422 cells): > 40 µM | IC50 (OCI-Ly10 cells): 10 µM | IC50 (OCI-Ly3 cells): 12 µM | IC50 (Su-DHL2 cells): 10 µM | IC50 (Su-DHL4 cells): > 20 µM | IC50 (TMD8 cells): 10 µM | IC50 (U2392 cells): 10 µM
